Columns and labels:
[1] = molecular target: human EGFR (native sequence) (Homo sapiens, UniProt P00533); assay: Kinase inhibition, human EGFR (native sequence); format: biochemical; details: 10 μM ATP; 10 pt curves, 3 μM top concentration (singlicates)
Experimental: (§1) Kinase inhibitory activity of the compounds was measured against human EGFR (native sequence) and against EGFR bearing the L858R mution and the L858R/T790M double mutation (EGFR, L858R, and L858R/T790M, respectively in Table 1). Additional assays can be conducted with EGFR deletion mutants such as delE746-A750 with or without the additional T790M mutation. Assay conditions included 10 pt curves with 3 μM top concentration (singlicates) and 10 μM ATP.

[2] = molecular target: EGFR bearing the L858R/T790M double mutation (Homo sapiens, UniProt P00533, L858R/T790M); assay: Kinase inhibition, EGFR L858R/T790M; format: biochemical; details: 10 μM ATP; 10 pt curves, 3 μM top concentration (singlicates)
Experimental: as §1

[3] = molecular target: EGFR bearing the L858R mution (Homo sapiens, UniProt P00533, L858R); assay: Kinase inhibition, EGFR L858R; format: biochemical; details: 10 μM ATP; 10 pt curves, 3 μM top concentration (singlicates)
Experimental: as §1

[4] = tested on: BAF3 PARENTAL; assay: Cell proliferation (MTT), BAF3 parental; format: cell-based; details: Mus musculus
Experimental: (§2) We also assessed the antiproliferative activity of compounds of Formula (I) against BaF3 cells expressing the target EGFR mutations or control (i.e., cell lines expressing wildtype EGFR). Assays were conducted using MTT.

[5] = tested on: BAF3 EGFR L858R-T790M PURO POOL; assay: Cell proliferation (MTT), BAF3 EGFR L858R-T790M; format: cell-based; details: Ba/F3 EGFR
Experimental: as §2

[6] = molecular target: BAF3 EGFR DEL T790M PURO POOL (Homo sapiens, UniProt P00533, DEL746-750/T790M, cells depend on it); assay: Cell proliferation (MTT), BAF3 EGFR DEL T790M; format: cell-based
Experimental: as §2

EGFR bearing the L858R/T790M double mutation, sequence (P00533 25-1210 T790M/L858R): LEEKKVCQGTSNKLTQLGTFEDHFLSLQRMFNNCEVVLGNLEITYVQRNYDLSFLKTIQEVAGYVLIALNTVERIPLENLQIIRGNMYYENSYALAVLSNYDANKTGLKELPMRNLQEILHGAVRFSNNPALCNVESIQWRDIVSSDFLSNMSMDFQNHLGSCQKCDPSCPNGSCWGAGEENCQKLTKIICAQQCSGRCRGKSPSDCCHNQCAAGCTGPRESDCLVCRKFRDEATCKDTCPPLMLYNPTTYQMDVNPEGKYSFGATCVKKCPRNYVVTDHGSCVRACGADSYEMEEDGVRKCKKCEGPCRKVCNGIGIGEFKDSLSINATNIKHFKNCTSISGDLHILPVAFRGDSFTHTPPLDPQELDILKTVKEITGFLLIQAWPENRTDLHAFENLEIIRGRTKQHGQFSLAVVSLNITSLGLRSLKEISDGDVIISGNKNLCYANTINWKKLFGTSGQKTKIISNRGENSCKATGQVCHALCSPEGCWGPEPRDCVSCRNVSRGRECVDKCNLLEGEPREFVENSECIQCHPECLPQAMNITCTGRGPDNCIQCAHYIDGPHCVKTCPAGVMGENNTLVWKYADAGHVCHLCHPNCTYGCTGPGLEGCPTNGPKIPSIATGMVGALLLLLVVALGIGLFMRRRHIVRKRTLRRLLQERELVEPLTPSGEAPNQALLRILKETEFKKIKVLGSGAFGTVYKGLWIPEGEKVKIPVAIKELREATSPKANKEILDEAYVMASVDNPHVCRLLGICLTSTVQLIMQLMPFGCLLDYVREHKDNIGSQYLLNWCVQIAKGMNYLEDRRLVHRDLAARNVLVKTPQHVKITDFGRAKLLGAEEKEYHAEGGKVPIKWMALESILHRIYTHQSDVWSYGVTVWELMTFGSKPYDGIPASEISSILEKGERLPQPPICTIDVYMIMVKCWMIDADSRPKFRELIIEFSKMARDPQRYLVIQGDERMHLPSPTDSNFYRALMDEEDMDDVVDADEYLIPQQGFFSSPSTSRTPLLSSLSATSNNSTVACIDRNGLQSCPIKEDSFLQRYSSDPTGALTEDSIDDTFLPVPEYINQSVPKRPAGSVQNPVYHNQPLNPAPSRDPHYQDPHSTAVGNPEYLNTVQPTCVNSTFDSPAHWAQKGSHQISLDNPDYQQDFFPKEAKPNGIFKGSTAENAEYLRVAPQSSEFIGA
human EGFR (native sequence), sequence (P00533 25-1210): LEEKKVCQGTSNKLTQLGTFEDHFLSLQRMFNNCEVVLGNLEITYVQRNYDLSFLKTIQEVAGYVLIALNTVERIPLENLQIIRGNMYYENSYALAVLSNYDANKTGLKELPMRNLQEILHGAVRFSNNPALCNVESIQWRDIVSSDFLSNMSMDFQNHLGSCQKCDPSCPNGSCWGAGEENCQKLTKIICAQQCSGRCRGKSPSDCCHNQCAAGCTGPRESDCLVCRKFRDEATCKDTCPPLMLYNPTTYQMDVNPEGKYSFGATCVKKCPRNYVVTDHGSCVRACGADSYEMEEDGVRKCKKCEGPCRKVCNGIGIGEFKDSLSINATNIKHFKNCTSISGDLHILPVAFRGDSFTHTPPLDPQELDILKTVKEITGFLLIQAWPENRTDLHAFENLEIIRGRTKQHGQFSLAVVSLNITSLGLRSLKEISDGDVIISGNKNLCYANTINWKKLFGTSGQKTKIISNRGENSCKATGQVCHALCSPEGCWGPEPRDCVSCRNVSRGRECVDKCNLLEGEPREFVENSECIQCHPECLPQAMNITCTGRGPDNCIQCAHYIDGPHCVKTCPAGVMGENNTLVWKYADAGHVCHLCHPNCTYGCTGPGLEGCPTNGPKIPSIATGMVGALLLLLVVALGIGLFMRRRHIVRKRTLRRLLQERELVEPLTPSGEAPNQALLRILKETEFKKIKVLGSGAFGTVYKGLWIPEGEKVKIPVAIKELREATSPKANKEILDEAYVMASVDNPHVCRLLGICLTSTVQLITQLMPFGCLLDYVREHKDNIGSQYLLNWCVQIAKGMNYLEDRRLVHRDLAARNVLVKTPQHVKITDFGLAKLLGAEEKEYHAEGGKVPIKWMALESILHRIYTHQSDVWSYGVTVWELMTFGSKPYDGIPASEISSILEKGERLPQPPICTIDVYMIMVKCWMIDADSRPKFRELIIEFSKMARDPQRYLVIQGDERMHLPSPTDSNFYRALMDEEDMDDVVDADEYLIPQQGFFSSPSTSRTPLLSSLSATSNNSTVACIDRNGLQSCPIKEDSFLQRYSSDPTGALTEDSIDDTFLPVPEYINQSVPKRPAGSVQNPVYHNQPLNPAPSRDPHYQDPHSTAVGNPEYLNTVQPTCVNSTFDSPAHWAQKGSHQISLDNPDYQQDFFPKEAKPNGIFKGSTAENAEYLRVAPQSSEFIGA
BAF3 EGFR DEL T790M PURO POOL, sequence (P00533 with tags, fused parts or gaps DEL746-750/T790M): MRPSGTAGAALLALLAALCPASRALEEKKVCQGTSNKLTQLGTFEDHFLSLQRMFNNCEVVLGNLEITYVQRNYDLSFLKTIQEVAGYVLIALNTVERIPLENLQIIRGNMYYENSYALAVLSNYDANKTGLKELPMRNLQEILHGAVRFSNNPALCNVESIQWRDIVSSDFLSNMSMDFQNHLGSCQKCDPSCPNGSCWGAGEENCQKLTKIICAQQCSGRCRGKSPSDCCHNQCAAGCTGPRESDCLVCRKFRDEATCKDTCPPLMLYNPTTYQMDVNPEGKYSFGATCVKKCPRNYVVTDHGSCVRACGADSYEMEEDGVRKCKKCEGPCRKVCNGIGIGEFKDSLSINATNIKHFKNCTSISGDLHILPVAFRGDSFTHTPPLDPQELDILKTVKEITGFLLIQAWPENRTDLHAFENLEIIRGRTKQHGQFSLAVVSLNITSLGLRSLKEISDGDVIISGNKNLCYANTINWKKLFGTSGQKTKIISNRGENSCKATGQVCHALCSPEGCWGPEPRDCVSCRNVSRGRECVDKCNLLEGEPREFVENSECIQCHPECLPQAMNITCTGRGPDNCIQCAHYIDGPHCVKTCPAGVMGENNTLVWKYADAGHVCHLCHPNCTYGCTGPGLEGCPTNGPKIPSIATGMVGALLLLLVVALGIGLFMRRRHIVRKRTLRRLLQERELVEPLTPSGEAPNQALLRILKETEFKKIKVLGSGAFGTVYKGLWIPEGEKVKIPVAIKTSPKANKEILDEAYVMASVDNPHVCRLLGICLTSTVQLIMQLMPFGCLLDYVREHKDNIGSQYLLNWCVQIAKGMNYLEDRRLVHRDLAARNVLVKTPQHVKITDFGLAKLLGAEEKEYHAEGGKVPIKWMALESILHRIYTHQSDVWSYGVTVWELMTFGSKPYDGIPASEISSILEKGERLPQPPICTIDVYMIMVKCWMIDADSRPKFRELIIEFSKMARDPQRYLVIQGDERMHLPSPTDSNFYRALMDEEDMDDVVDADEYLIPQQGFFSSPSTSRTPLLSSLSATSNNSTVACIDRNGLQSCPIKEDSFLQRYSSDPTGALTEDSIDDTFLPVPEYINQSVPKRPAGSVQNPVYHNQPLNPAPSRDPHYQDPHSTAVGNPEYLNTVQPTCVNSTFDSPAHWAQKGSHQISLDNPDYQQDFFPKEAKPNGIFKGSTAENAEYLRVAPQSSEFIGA
EGFR bearing the L858R mution, sequence (P00533 25-1210 L858R): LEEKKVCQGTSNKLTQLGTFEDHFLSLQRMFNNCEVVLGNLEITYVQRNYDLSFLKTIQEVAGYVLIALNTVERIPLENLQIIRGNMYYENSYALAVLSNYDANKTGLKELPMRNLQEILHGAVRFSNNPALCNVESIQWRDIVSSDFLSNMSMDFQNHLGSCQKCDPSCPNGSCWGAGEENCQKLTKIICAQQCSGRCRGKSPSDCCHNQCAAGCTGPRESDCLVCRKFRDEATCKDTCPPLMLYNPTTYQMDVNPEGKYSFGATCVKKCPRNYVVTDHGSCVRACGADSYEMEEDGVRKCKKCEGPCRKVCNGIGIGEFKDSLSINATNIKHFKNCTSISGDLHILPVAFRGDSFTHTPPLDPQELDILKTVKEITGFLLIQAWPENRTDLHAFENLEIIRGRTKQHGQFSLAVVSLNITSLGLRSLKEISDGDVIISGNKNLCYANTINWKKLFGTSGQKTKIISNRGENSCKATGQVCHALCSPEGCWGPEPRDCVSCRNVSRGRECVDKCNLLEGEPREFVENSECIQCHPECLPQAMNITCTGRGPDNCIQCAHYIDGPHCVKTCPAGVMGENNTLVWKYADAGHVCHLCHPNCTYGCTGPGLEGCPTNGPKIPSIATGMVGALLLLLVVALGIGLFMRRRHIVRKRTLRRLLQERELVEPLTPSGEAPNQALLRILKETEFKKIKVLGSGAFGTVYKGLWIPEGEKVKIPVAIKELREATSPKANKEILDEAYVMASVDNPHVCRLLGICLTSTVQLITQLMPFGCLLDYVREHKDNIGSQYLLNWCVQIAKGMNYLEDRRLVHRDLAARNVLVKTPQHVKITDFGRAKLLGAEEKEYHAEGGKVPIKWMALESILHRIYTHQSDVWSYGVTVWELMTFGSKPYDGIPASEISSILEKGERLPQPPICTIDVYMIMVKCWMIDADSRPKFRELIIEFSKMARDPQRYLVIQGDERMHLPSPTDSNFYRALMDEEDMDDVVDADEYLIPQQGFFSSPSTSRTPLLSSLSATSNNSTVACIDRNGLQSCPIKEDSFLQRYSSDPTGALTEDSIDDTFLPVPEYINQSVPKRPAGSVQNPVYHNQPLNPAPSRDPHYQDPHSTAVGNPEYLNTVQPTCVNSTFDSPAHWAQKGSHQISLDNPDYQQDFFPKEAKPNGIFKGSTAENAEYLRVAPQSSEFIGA

SMILES	IC50 [1]	IC50 [2]	IC50 [3]	IC50 [4]	IC50 [5]	IC50 [6]
COc1cc(F)c(NC(=O)/C=C/CN(C)C)cc1Nc1ncc(Cl)c(Nc2ccccc2P(C)(C)=O)n1 [Example 56, (E)-N-(5-((5-chloro-4-((2-(dimethylphosphoryl)phenyl)amino)pyrimidin-2-yl)amino)-2-fluoro-4-methoxyphenyl)-4-(dimethylamino)but-2-enamide]	101 to 250 nM	< 51 nM	< 51 nM	≥ 250 nM	< 51 nM	< 51 nM
C=C(CN(C)C)C(=O)Nc1ccc(OC)c(Nc2ncc(Cl)c(Nc3ccccc3P(C)(C)=O)n2)c1 [Example 17, N-(3-((5-chloro-4-((2-(dimethylphosphoryl)phenyl)amino)pyrimidin-2-yl)amino)-4-methoxyphenyl)-2-((dimethylamino)methyl)acrylamide]	< 51 nM	< 51 nM	< 51 nM	≥ 250 nM	< 51 nM	< 51 nM
C=CC(=O)N(C(=O)C=C)c1ccc(OC)c(Nc2ncc(Cl)c(Nc3ccccc3P(C)(C)=O)n2)c1 [Example 26, N-acryloyl-N-(3-((5-chloro-4-((2-(dimethylphosphoryl)phenyl)amino)pyrimidin-2-yl)amino)-4-methoxyphenyl)acrylamide]	≥ 250 nM	101 to 250 nM	101 to 250 nM	≥ 250 nM	51 to 100 nM	< 51 nM
C=CC(=O)Nc1ccc(OC)c(Nc2ncc(C3CC3)c(Nc3ccccc3P(C)(C)=O)n2)c1 [Example 65, N-(3-((5-cyclopropyl-4-((2-(dimethylphosphoryl)phenyl)amino)pyrimidin-2-yl)amino)-4-methoxyphenyl)acrylamide]	51 to 100 nM	< 51 nM	< 51 nM	≥ 250 nM	< 51 nM	< 51 nM
C=CC(=O)Nc1ccc(OC)c(Nc2ncc(Cl)c(Nc3ccc(F)cc3P(C)(C)=O)n2)c1 [Example 54, N-(3-((5-chloro-4-((2-(dimethylphosphoryl)-4-fluorophenyl)amino)pyrimidin-2-yl)amino)-4-methoxyphenyl)acrylamide]	101 to 250 nM	< 51 nM	< 51 nM	≥ 250 nM	< 51 nM	< 51 nM
C=CC(=O)Nc1cc(Nc2ncc(Cl)c(Nc3ccccc3P(C)(C)=O)n2)c(OC)cc1OC1CCOC1 (stereo not drawn) [Example 24, N-(5-((5-chloro-4-((2-(dimethylphosphoryl)phenyl)amino)pyrimidin-2-yl)amino)-4-methoxy-2-((tetrahydrofuran-3-yl)oxy)phenyl)acrylamide]	≥ 250 nM	< 51 nM	< 51 nM	≥ 250 nM	101 to 250 nM	≥ 250 nM
C=CC(=O)Nc1cc(Nc2ncc(Cl)c(Nc3cccc(C)c3P(=O)(CC)CC)n2)c(OC)cc1F [Example 49, N-(5-((5-chloro-4-((2-(diethylphosphoryl)-3-methylphenyl)amino)pyrimidin-2-yl)amino)-2-fluoro-4-methoxyphenyl)acrylamide]	< 51 nM	< 51 nM	< 51 nM	≥ 250 nM	< 51 nM	< 51 nM
C=CC(=O)Nc1ccc(OC)c(Nc2ncc(F)c(Nc3ccccc3P(C)(C)=O)n2)c1 [Example 11, N-(3-((4-((2-(dimethylphosphoryl)phenyl)amino)-5-fluoropyrimidin-2-yl)amino)-4-methoxyphenyl)acrylamide]	101 to 250 nM	< 51 nM	< 51 nM	≥ 250 nM	101 to 250 nM	51 to 100 nM
C=CC(=O)Nc1cc(Nc2ncc(Cl)c(Nc3ccccc3P(C)(C)=O)n2)c(OC)cc1CCCN(CC)CC [Example 40, N-(5-((5-chloro-4-((2-(dimethylphosphoryl)phenyl)amino)pyrimidin-2-yl)amino)-2-(3-(diethylamino)propyl)-4-methoxyphenyl)acrylamide]	< 51 nM	< 51 nM	< 51 nM	≥ 250 nM	≥ 250 nM	< 51 nM
COc1ccc(NC(=O)C2CO2)cc1Nc1ncc(Cl)c(Nc2ccccc2P(C)(C)=O)n1 (stereo not drawn) [Example 58, N-(3-((5-chloro-4-((2-(dimethylphosphoryl)phenyl)amino)pyrimidin-2-yl)amino)-4-methoxyphenyl)oxirane-2-carboxamide]	< 51 nM	< 51 nM	< 51 nM	≥ 250 nM	< 51 nM	< 51 nM
